{
  "source": "BindingDB's records for doi:10.3109/14756366.2013.823958",
  "about": "(Birla Institute of Technology, 2014)",
  "data": [
    {"molecular_target": "T1, Secreted chorismate mutase (Mycobacterium tuberculosis (strain ATCC 25618 / H37Rv), UniProt P9WIB9)", "T1 sequence (P9WIB9 whole entry)": "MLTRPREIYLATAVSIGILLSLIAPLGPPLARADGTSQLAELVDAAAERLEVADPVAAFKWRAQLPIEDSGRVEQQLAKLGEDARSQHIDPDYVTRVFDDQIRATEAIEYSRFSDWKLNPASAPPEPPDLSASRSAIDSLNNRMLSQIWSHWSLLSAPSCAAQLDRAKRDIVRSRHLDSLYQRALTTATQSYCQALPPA", "experiment": "CM Assay", "conditions": "pH 7.5; 37 °C", "procedure": "Reaction volumes of 0.4 mL of chorismate (typically, 1 mM) in 50 mM Tris-HCl (pH 7.5), 0.5 mM EDTA, 0.1 mg/mL bovine serum albumin, and 10 mM β-mercaptoethanol were incubated at 37 °C for 5 min. The reaction was started with 5 pmol of MTB CM in a 10-μl volume (i.e. 185 ng of MTB CM equivalent toa 12.5nM final concentration of the dimer based on the molecular mass of 36 948 Da). The reaction was allowed to proceed at 37 °C and was terminated after 1 min to 5 min with 0.4 ml of 1N HCl. After a further incubation at 37 °C for 10 min to convert prephenate, which is formed in the enzymatic reaction, tophenylpyruvate, 0.8 ml of 2.5N NaOH was added. The absorbance of the phenylpyruvate chromophore was read at 320 nm. We set up a blank with no enzyme for every reaction to account for the non-enzymatic conversion of chorismate to prephenate and added the enzyme after NaOH addition. The A320 for the blank varied from 0.1 to 0.3, depending on the concentration of chorismate and duration of the reaction. Each reaction was carried out in triplicates.", "units": {"IC50": "µM"}, "values": [
      {"compound": "Cc1ccc(C(C)C)cc1O", "IC50": 1.06},
      {"compound": "C=CCc1ccc(O)c(OC)c1", "note": "[2-methoxy-4-(prop-2-en-1-yl)phenol4-allyl-2-methoxyphenol]", "IC50": 28.6},
      {"compound": "COc1cc(C=O)ccc1O", "note": "[4-hydroxy-3-methoxybenzaldehyde]", "IC50": 24.8},
      {"compound": "Cc1ccc(C(C)C)c(O)c1", "note": "[5-methyl-2-(propan-2-yl)phenol]", "IC50": 28.4},
      {"compound": "C=C(C)C1CCC(C)CC1O", "note": "(stereo not drawn) [(±)Neo isopulegol]", "IC50": 13.6},
      {"compound": "Cc1cc(O)cc(C(C)C)c1", "note": "[Carvacrol derivative, 7]", "IC50": 26.8},
      {"compound": "Cc1ccc(C(C)C)cc1", "note": "[Carvacrol derivative, 8]", "IC50": 11.6},
      {"compound": "Cc1ccccc1O", "note": "[Carvacrol derivative, 9]", "IC50": 23.1},
      {"compound": "CC(C)c1cccc(O)c1", "note": "[Carvacrol derivative, 10]", "IC50": 21.4},
      {"compound": "Cc1cc(Cl)c(C(C)C)cc1O", "note": "[Carvacrol derivative, 15]", "IC50": 13.7},
      {"compound": "CC1CCC(C(C)C)C(O)C1", "note": "(stereo not drawn) [Menthol]", "IC50": 26.4},
      {"compound": "CC(=O)Oc1cc(C)ccc1C(C)C", "note": "[Thymol derivative, 17]", "IC50": 4.08},
      {"compound": "COc1cc(C)ccc1C(C)C", "note": "[Thymol derivative, 21]", "IC50": 21.6}
    ]}
  ]
}
